Experiments:
[1] = RNA encapsulation efficiency of LNPs by Quant-IT Ribogreen; format: physicochemical; conditions: LNPs with luciferase mRNA; ionizable lipid:non-cationic lipid:sterol:PEG-modified lipid 50:10:38.5:1.5; percentage of RNA entrapped in the LNP
Method: The mRNA aqueous solution was then carefully added to the ethanol solution, and the resulted solution was homogenized by pipetting up and down for 4-5 times. The resulting LNPs were immediately diluted 1:1 with Tris buffer and dialyzed overnight against Tris buffer containing 15% sucrose. The resulting LNP solution was then collected, and the encapsulated mRNA was assessed by Quant-IT® Ribogreen (Invitrogen R11490) following the manufacturer's instructions.
(§1) The LNP solution was then adjusted to a final concentration of mRNA of 100 µg/ml. Size distribution, polydispersity and Z-potential were measured by dynamic light scattering (DLS) using Malvern Zetasizer Advance Lab Blue Label. RNA encapsulation was assessed by Quant-IT® Ribogreen following the manufacturer's instructions.

[2] = Size distribution, polydispersity and Z-potential of LNPs by dynamic light scattering (Malvern Zetasizer); format: physicochemical; conditions: LNPs, standard formulation 50:10:38.5:1.5; DLS
Method: as §1

SMILES | Encaps. efficiency (%) [1] | P.D.I. [2] | Particle size/ Ø (nm) [2] | Z Potential (± D.E.) [mV] [2]
CCCCCCCCC(CCCCCC)C(=O)NC(CCSCCC(=O)OCCCCCC(C)C)C(=O)NC1CCN(C)CC1 (stereo not shown) [VC-LC-0217] | 72.79% | 0.14 | 156.7 nm | -2.41 mV
CCCCCCCCCCCCOC(=O)CCSCCC(NC(=O)C(CCCCCC)CCCCCCCC)C(=O)NCCCn1ccnc1 (stereo not shown) [VC-LC-0260] | 44.25% | 0.18 | 161.7 nm | -17.24 mV
CCCCCCCCC(CCCCCC)C(=O)NC(CCSCCC(=O)OCCCCCCCC(C)C)C(=O)NCCN1CCN(C)CC1 (stereo not shown) [VC-LC-0180] | 87.95% | 0.19 | 197.5 nm | -4.28 mV
CCCCCCCCCCCCOC(=O)CCSCCC(NC(=O)C(CCCCCC)CCCCCCCC)C(=O)NCCCN(C)C (stereo not shown) [VC-LC-0103] | 100.00% |  |  | 0.00 mV
CCCCCCCC#CCOC(=O)CCSCCC(NC(=O)CCCCCCC/C=C\CCCCCCCC)C(=O)NCCCN1CCOCC1 (stereo not shown) [VC-LC-0354] | 68.28% | 0.13 | 234.3 nm | -0.57 mV
CCCCCCCCCCCCCCCCCCCCCCOC(=O)CCSCC(CC(=O)NCCCn1ccnc1)C(=O)OC(CCCCCCCC)CCCCCCCC (stereo not shown) [VC-LC-0304] | 54.05% | 0.26 |  | -23.20 mV
CCCCCCCCCCCCCOC(=O)CCSCCC(NC(=O)C(CCCCCC)CCCCCCCC)C(=O)NCCCN(C)C (stereo not shown) [VC-LC-0099] | 98.48% |  |  | 0.00 mV
CCCCCCCCCCCCCCCCCC(=O)NC(CCSCCC(=O)OCCCCCCCCCCCCC)C(=O)NC1CCN(C)CC1 (stereo not shown) [VC-LC-0435] | 99.22% | 0.2 | 182.6 nm | 8.58 mV
CCCCCCCC/C=C\CCCCCCCC(=O)NC(CCSCCC(=O)OCCCCCCCCCCCC)C(=O)NC1CCN(C)CC1 (stereo not shown) [VC-LC-0326] | 99.06% | 0.25 | 181.9 nm | 7.00 mV
CCCCCCCCC(CCCCCC)C(=O)NC(CCSCCC(=O)OCCCCCC)C(=O)NCCCN1CCOCC1 (stereo not shown) [VC-LC-0175] | 23.97% | 0.09 | 120 nm | -15.84 mV
CCCCCCCCCCCCCCCCOC(=O)CCSCCC(NC(=O)C(CCCCCC)CCCCCCCC)C(=O)NCCCN1CCOCC1 (stereo not shown) [VC-LC-0170] | 56.36% |  | 266.4 nm | -22.79 mV
CCCCCCCCC(CCCCCC)C(=O)NC(CCSCCC(=O)OCCCCCCCC(C)C)C(=O)NCCCN1CCCC1 (stereo not shown) [VC-LC-0243] | 93.35% | 0.18 | 197.6 nm | 2.43 mV
CCCCCCCCCCCCOC(=O)CCSCCC(C(=O)NCCCN1CCOCC1)C(=O)OCC(CCCCCC)CCCCCCCC (stereo not shown) [VC-LC-0609] | 54.21% | 0.16 | 168.6 nm | -20.42 mV
CCCCCCCCC(CCCCCC)C(=O)NC(CCSCCC(=O)OCC(CC)CCCC)C(=O)NCCCN1CCOCC1 (stereo not shown) [VC-LC-0166] | 42.53% | 0.11 | 164.8 nm | -24.55 mV
CCCCCCCCCCCCCCOC(=O)CCSCCC(NC(=O)C(CCCCCC)CCCCCCCC)C(=O)NCCCN(C)C (stereo not shown) [VC-LC-0104] | 100.00% |  |  | 0.00 mV
CCCCCCCCCCCCCCCCCCCCCCOC(=O)CCSCCC(C(=O)NCCCn1ccnc1)C(=O)OC(CCCCCCCC)CCCCCCCC (stereo not shown) [VC-LC-0363] | 63.87% | 0.18 | 143.9 nm | -17.92 mV

SMILES | Encaps. efficiency (%) [1] | P.D.I. [2] | Particle size/ Ø (nm) [2] | Z Potential (± D.E.) [mV] [2]
CCCCCCCCCCCCCCCCCCOC(=O)CCSCC(CC(=O)NCCCn1ccnc1)C(=O)OC(CCCCCCCC)CCCCCCCC (stereo not shown) [VC-LC-0300] | 36.51% | 0.17 | 156.9 nm | -9.75 mV
CCCCCCCCCCCCCCCCOC(=O)CCSCCC(NC(=O)C(CCCCCC)CCCCCCCC)C(=O)NC1CCN(C)CC1 (stereo not shown) [VC-LC-0216] | 52.13% | 0.35 |  | -20.53 mV
CCCCCCCCC(CCCCCC)C(=O)NC(CCSCCC(=O)OCCCCCCCC(C)C)C(=O)NC1CCN(C)CC1 (stereo not shown) [VC-LC-0211] | 67.87% | 0.14 | 181 nm | -4.59 mV
CCCCCCCC/C=C\CCCCCCCC(=O)NC(CCSCCC(=O)OCCCCCC(C)C)C(=O)NCCCN(CCO)CCO (stereo not shown) [VC-LC-0293] | 92.48% | 0.13 | 178.6 nm | 12.29 mV
CCCCCCCCC(CCCCCC)C(=O)NC(CCSCCC(=O)OCCCCCC(C)C)C(=O)NCCN1CCN(C)CC1 (stereo not shown) [VC-LC-0186] | 86.70% | 0.18 | 158.7 nm | 3.38 mV
CCCCCCCCC(CCCCCC)C(=O)NC(CCSCCC(=O)OCC(CC)CCCC)C(=O)NCCCN(CCO)CCO (stereo not shown) [VC-LC-0197] | 90.54% | 0.22 | 262.2 nm | 1.39 mV
CCCCCCCCCCCCOC(=O)CCSCC(CC(=O)NC1CCN(C)CC1)C(=O)OCC(CCCCCC)CCCCCCCC (stereo not shown) [VC-LC-0528] | 98.83% | 0.2 | 137.4 nm | 4.55 mV
CCCCCCCCC(CCCCCC)COC(=O)C(CSCCC(=O)OCCCCCCCC(C)C)CC(=O)NC1CCN(C)CC1 (stereo not shown) [VC-LC-0526] | 97.90% | 0.16 | 124.7 nm | 3.68 mV
CCCCCCCCCCCCOC(=O)CCSCCC(NC(=O)C(CCCCCC)CCCCCCCC)C(=O)NCCN1CCN(C)CC1 (stereo not shown) [VC-LC-0182] | 91.18% | 0.22 | 217.1 nm | -2.72 mV
CCCCCCCCC(CCCCCC)C(=O)NC(CCSCCC(=O)OCCCCCC)C(=O)NCCCN(CCO)CCO (stereo not shown) [VC-LC-0206] | 82.26% | 0.17 | 179.9 nm | -2.86 mV
CCCCCCCCCCCCCOC(=O)CCSCC(CC(=O)NC1CCN(C)CC1)C(=O)OCC(CCCCCC)CCCCCCCC (stereo not shown) [VC-LC-0524] | 97.01% | 0.15 | 129.9 nm | 3.83 mV
CCCCCCCCCCCCCOC(=O)CCSCC(CC(=O)NCCCn1ccnc1)C(=O)OC(CCCCCCCC)CCCCCCCC (stereo not shown) [VC-LC-0294] | 65.74% | 0.09 | 160.7 nm | -10.37 mV
CCCCCCCCCCCCCCCCCCOC(=O)CCSCC(CC(=O)NC1CCN(C)CC1)C(=O)OCC(CCCCCC)CCCCCCCC (stereo not shown) [VC-LC-0530] | 97.41% | 0.26 | 164 nm | 7.65 mV
CCCCCCCC/C=C\CCCCCCCC(=O)NC(CCSCCC(=O)OCCCCCCCCCCCCC)C(=O)NC1CCN(C)CC1 (stereo not shown) [VC-LC-0322] | 97.01% | 0.17 | 220.5 nm | 2.31 mV
CCCCCCCCCCCCCCCCOC(=O)CCSCC(CC(=O)NC1CCN(C)CC1)C(=O)OCC(CCCCCC)CCCCCCCC (stereo not shown) [VC-LC-0531] | 98.54% | 0.19 | 158.6 nm | 9.15 mV

Reference: patent EP4371976B1, “IONIZABLE LIPIDS AND LIPID NANOPARTICLES CONTAINING THEREOF” (Certest Biotec, S.L., priority 2022, dated 2024)
